This note sets out measurements from patent publication US20140045856A1, “4-Methyl-2,3,5,9,9b-pentaaza-cyclopenta[a]naphthalenes” (BOEHRINGER INGELHEIM INTERNATIONAL GMBH, priority 2012, published 2014).

The structures appear in SMILES notation.

Data set [1] concerns the target PDE 10A (Homo sapiens, UniProt Q9Y233). The data set can be described thus: Radioactive PDE10 assay ([3H]cAMP SPA). It is filed as biochemical.
Protocol: (§1) The activity of the positive control (minus the negative control=background) is set to 100% and activity in the presence of compound is expressed relative to these 100%.
(§2) IC50 are calculated with GraphPadPrism or other suited software setting the positive control as 100 and the negative control as 0. For calculation of IC50 usually 11 dilutions of the test compound are selected.
protein concentration: 75 pg/μl
In detail the protocol is as follows:
(§3) Into a 384 well plate (OptiPlate, white), the following components are pipetted (either manually or using automated pipetting devices):
(§4) 20 μl test-compound solution (test compound diluted in assay buffer at twofold the desired concentration)
+10 μl PDE 10A preparation (enzyme diluted in assay buffer to a concentration of 0.3 ng/μl protein)
+10 μl cAMP tracer (diluted in assay buffer to a concentration of 80 nM cAMP, specific activity ˜4 mCi/l)
After addition of all 3 components the plates are shortly spun and incubated at room temperature for 60 min. The reaction is stopped by the addition of 20 μl Yttrium SPA PDE Beads containing 18 mM zinc sulphate in water
PDE 10A protein is expressed upon baculovirus infection in SF9 cells. The cells have been incubated upon infection for ˜3 days and protein production was confirmed by Western Blot. The cells were collected by centrifugation and the pellet frozen in liquid nitrogen before it was resuspended in PBS containing 1% Triton X-100 and protease inhibitors.
Data set [2] has as its target T1, PDE2A (Homo sapiens, UniProt O00408). The data set can be described thus: PDE 2A assay with fluorescent substrate (IMAP, fluorescence polarization). It is filed as biochemical. The settings on record: read-out: PDE2 IC50.
Description: c) Phosphodiesterase (PDE) 2A and 10 Assay with Fluorescent Substrate
The PDE reaction cleaves cAMP to AMP. The IMAP system (Molecular Device) using fluorescence polarization (FP) as detection principle was used to measure enzyme activity. A fluorescent labeled cAMP was used as substrate for the reaction, generating a labeled AMP. The fluorescent AMP binds specifically to the large M(III)-based nano-particles which reduces the rotational speed of the substrate and thus increases its polarization.
The inhibition of PDE 2A or 10 enzyme activity was assessed using IMAP-Phosphodiesterase-cAMP fluorescence labeled substrate (Molecular Devices, Order No. R7506), IMAP TR-FRET screening express (Molecular Devices, Order No. R8160, the TR-FRET component will not be used) and PDE 2A or PDE10 protein expressed upon baculovirus infection in SF9 cells. The cells were incubated after infection for ˜3 days and protein production was confirmed by Western Blot. The cells were collected by centrifugation and the pellet frozen in liquid nitrogen before it was resuspended in PBS containing 1% Triton X-100 and protease inhibitors.
All reactions were performed in 384 well plates, Perkin Elmer black optiplates and IMAP reaction buffer with 0.1% Tween20 (kit component)
Compounds were serial diluted in DMSO. With an intermediate dilution step with reaction buffer DMSO concentration was reduced to achieve 1% DMSO in the assay reaction. Setup of the assay started with 10 μl enzyme (˜10 ng/well, depending on prep. batch), 5 μl compound, reaction was started by addition of 5 μl labeled cAMP (30 nM, final concentration), immediately mixed for 15 seconds on a Eppendorf mixmate (2000 rpm) followed by an incubation at room temperature for 90 minutes in the dark. Reaction is stopped by adding of 60 μl binding buffer for FP/cAMP (kit component).
Each assay plate contained wells with vehicle controls (1% DMSO) for the measurement of non-inhibited reaction (=100% control) and wells without enzyme as 0% controls.
Data set [3] concerns the target PDE10 (Homo sapiens, UniProt Q9Y233). The data set can be described thus: PDE10 assay with fluorescent substrate (IMAP, fluorescence polarization). It is filed as biochemical. Background: In fluorescence polarisation assays a small probe gives low polarisation when free and higher when bound to something large.
The target of data set [4] is T1, PDE2A. The data set can be described thus: Radioactive PDE2 assay ([3H]cAMP SPA). It is filed as biochemical.
Protocol: a) Radioactive PDE2 Assay Protocol:
PDE 2A protein is expressed upon baculovirus infection in SF9 cells. The cells have been incubated upon infection for ˜3 days and protein production was confirmed by Western Blot. The cells were collected by centrifugation and the pellet frozen in liquid nitrogen before it was resuspended in PBS containing 1% Triton X-100 and protease inhibitors.
as §3, §4
+10 μl PDE 2A preparation (enzyme diluted in assay buffer to a concentration of 0.5 ng/μl protein)
+10 μl [^3H]cAMP (diluted in assay buffer to a concentration of 80 nM cAMP)
positive control: no inhibitor, DMSO at the concentration as used in the compound dilutions
negative control: no PDE 2 (SF9 lysate instead of SF9/PDE 2A lysate)
Calculation of % Inhibition:
as §1, §2
Data set [5] concerns the target hERG channel (Homo sapiens, UniProt Q12809). The data set can be described thus: hERG channel assay (whole-cell patch clamp, HEK293 cells transfected with hERG cDNA). It is filed as cell-based. The following applies: 35° C. The text has this: hERG (Human Ether-à-Go-Go-Related Gene)-Channel Assay
hERG channel inhibition of compounds of the present invention has been investigated as follows:
HEK (human embryonic kidney) 293 cells were stably transfected with hERG cDNA. Cells were superfused with a bath solution containing (mM): NaCl (137), KCl (4.0), MgCl2 (1.0), CaCl2 (1.8), Glucose (10), HEPES (10), pH 7.4 with NaOH. Patch pipettes were made from borosilicate glass tubing using a horizontal puller and filled with pipette solution containing (mM): K-aspartate (130), MgCl2 (5.0), EGTA (5.0), K2ATP (4.0), HEPES (10.0), pH 7.2 with KOH. Resistance of the microelectrodes was in the range between 2 and 5 MΩ.
Stimulation and Recording:
Membrane currents were recorded using an EPC-10 patch clamp amplifier and PatchMaster software. hERG-mediated membrane currents were recorded at 35° C., using the whole-cell configuration of the patch-clamp technique. Transfected HEK293 cells were clamped at a holding potential of −60 mV and hERG-mediated inactivating tail currents were elicited using a pulse pattern with fixed amplitudes (activation/inactivation: 40 mV for 2000 ms; recovery: […]; ramp to 40 mV in 2 ms; inactivating tail current: 40 mV for 50 ms) repeated at 15 s intervals. During each inter-pulse interval 4 pulses scaled down by a factor of 0.2 were recorded for a P/n leak subtraction procedure. […] compensation was employed up to a level that safely allowed recording devoid of ringing.
Compound Preparation and Application:
The different concentrations of the test compound were applied sequentially on each of the different cells investigated. A steady state level of baseline current was measured for at least 6 sweeps prior to the application of the first test compound concentration.
The test compound was dissolved in DMSO to yield a master stock solution which was diluted further in DMSO to stock solutions needed for the lower concentrations. Final dilutions in extracellular buffer were prepared freshly from these stocks by a 1:1000 dilution step each before starting the experiments.
Data analysis and IC50 determination:
Peak current amplitudes were measured 3 ms after the ramp to +40 mV. For baseline and each concentration the peak currents of the three last sweeps before application of the next concentration were averaged. Residual currents ( 1/10) were calculated for each cell as the fraction of actual average peak current and average baseline peak current.
The logistic concentration-response curve of the following form was fitted to the residual current data using a genetic algorithm:
C: actual concentration of compound (in μM) IC50: half-inhibitory concentration (in μM) p: Hill slope
(hERG is a cardiac potassium channel; its block is linked to QT prolongation.)

Data set [6] is described as follows: Metabolic stability in pooled liver microsomes. It is filed as in vitro ADME. The following applies: human liver microsomes, 37° C., 1 mg/mL microsomal protein, test compound 1 μM, NADPH.

T1 sequence (O00408 whole entry, species assumed): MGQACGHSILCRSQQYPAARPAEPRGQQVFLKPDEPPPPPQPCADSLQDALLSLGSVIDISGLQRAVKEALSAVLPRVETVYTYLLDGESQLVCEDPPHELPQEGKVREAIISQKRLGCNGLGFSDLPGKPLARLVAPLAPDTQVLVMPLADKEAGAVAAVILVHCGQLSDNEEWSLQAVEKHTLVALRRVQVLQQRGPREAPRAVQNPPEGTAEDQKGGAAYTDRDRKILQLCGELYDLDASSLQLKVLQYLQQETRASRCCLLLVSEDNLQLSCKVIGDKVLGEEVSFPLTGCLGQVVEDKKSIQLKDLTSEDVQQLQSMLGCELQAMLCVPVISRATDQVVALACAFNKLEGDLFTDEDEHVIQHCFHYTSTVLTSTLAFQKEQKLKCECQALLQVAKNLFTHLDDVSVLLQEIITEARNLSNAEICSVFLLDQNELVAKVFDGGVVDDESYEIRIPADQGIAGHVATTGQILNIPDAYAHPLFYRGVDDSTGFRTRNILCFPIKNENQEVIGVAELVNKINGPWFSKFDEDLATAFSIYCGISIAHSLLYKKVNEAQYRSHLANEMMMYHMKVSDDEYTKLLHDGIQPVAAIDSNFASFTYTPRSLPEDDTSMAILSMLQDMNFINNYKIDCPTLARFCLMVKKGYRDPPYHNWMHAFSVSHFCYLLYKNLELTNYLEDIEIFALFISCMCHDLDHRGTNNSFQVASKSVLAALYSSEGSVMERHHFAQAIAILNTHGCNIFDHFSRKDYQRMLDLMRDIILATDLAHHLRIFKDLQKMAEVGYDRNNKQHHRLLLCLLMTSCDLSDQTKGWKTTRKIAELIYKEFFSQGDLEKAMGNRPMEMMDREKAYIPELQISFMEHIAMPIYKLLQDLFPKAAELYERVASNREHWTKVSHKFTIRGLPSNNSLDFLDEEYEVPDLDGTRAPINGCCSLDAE
Sequence of PDE 10A (Q9Y233 whole entry, species assumed): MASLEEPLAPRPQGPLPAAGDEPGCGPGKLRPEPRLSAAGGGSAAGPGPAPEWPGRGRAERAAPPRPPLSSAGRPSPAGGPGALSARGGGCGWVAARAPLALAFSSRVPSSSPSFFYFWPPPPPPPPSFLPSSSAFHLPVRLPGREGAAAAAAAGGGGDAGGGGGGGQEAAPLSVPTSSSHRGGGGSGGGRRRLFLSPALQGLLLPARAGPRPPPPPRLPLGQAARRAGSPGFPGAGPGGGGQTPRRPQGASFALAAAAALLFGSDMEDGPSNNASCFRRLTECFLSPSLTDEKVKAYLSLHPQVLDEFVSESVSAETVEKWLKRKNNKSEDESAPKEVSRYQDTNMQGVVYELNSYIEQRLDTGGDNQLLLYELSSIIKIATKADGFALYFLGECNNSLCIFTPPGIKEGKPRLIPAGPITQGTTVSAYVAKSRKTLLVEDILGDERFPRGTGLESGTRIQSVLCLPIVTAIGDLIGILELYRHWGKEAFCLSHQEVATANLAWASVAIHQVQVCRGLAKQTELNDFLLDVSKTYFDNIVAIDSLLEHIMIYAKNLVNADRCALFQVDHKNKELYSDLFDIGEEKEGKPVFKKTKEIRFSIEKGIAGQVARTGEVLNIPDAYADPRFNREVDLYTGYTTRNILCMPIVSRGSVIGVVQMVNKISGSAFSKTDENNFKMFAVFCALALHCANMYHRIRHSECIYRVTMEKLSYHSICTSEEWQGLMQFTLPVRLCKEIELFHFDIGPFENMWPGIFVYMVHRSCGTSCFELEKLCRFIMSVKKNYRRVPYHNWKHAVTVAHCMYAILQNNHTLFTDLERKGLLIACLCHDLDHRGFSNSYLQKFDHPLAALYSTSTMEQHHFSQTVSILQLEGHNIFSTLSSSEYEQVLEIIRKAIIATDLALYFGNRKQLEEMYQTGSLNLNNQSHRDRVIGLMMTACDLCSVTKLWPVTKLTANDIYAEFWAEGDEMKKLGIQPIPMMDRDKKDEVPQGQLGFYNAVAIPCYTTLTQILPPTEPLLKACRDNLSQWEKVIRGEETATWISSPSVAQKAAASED
Sequence of PDE10 (Q9Y233 whole entry, species assumed): as above
Sequence of hERG channel (Q12809 whole entry): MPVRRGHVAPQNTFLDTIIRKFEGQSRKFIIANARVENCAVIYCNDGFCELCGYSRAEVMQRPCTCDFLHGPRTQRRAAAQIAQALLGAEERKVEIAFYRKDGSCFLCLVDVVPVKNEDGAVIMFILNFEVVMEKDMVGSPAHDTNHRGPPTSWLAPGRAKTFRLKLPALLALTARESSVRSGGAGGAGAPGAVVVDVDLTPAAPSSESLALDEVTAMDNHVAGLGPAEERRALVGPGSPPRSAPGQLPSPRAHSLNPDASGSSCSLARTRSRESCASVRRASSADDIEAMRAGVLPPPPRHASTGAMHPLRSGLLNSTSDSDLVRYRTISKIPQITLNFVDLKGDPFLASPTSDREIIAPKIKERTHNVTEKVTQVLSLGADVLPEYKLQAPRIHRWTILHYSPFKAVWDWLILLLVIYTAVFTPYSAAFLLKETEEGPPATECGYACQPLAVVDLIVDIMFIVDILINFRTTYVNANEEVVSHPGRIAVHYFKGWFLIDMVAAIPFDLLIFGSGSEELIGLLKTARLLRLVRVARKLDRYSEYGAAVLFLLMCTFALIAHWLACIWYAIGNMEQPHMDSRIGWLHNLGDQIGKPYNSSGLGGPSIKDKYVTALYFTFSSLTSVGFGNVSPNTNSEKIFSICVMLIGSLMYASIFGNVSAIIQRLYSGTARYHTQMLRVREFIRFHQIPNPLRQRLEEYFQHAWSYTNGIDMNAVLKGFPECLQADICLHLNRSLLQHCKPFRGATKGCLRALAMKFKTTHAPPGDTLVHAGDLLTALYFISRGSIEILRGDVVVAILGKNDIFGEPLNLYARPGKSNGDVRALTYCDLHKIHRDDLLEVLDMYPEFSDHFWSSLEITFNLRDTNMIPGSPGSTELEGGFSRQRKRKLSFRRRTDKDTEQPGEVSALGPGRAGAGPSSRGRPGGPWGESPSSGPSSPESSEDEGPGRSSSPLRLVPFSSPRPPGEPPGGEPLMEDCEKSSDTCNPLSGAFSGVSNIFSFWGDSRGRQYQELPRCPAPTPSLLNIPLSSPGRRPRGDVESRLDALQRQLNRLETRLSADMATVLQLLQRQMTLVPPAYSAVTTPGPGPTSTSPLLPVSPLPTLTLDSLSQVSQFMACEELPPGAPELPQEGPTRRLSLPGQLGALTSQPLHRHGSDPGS

`Cc1ccc2nc(C)c3nnc(-c4cc(O)ccc4Cl)n3c2n1` [Example 2]: the IC50 was 40 nM in data set [1], 3 nM in data set [2], 33 nM in data set [3] and 4 nM in data set [4].

Take `Cc1ccc2nc(C)c3nnc(-c4cccc(O)c4)n3c2n1` [Example 3]: the IC50 was determined as 411 nM in data set [1] and 155 nM in data set [4].

In the case of `Cc1nc2cccnc2n2c(-c3cc(O)ccc3F)nnc12` [Example 4], the IC50 in data set [1] stood at 441 nM; in data set [2] it was 120 nM; in data set [3] it was 256 nM; in data set [4], 138 nM.

Take `Cc1nc2cccnc2n2c(-c3cc(OCCCO)ccc3Cl)nnc12` [Example 13]: the IC50 was 2190 nM in data set [1]; above 10000 nM in data set [5]; 95 nM in data set [2]; 6360 nM in data set [3]; 53 nM in data set [4]. In data set [6], the “Half-life - t½” value was 2.17 h.

Turning to `Cc1nc2cccnc2n2c(-c3cc(OCCC(C)O)ccc3Cl)nnc12` (stereo not drawn) [Example 19], the IC50 in data set [1] came to 3010 nM; in data set [4], 146 nM.

For `Cc1nc2cccnc2n2c(-c3cc(OC4CCC(F)(F)CC4)ccc3Cl)nnc12` [Example 21], the 50% inhibitory concentration (IC50) in data set [1] was 2820 nM; in data set [5], above 10000 nM; in data set [2], 22 nM; in data set [3] it was 7050 nM; in data set [4] it was 70 nM. Moreover, in data set [6], the “Half-life - t½” value worked out at 2.17 h.

Consider `Cc1nc2cccnc2n2c(-c3cc(OCC4CCOC4)ccc3Cl)nnc12` (stereo not drawn) [Example 25], for which the IC50 in data set [1] amounted to 3260 nM; in data set [2], 38 nM; in data set [3] it was 7330 nM; in data set [4], 55 nM.

As to `Cc1nc2cccnc2n2c(-c3cc(OCCCO)ccc3F)nnc12` [Example 26], the figures for the half-maximal inhibitory concentration (IC50) in data set [1] and in data set [4] were 1380 nM and 116 nM, respectively.

For `COCCOc1ccc(Cl)c(-c2nnc3c(C)nc4ccc(C)nc4n23)c1` [Example 29], the IC50 in data set [1] worked out at 2380 nM; in data set [2], 37 nM; in data set [3], 5100 nM; in data set [4], 17 nM.

As to `Cc1ccc2nc(C)c3nnc(-c4cc(OC5CCC(F)(F)CC5)ccc4Cl)n3c2n1` [Example 30], the IC50 in data set [1] was determined as 3920 nM; in data set [2] it was 20 nM; in data set [3], 2570 nM; in data set [4], 27 nM. Further, in data set [6], the “Half-life - t½” value turned out to be 2.17 h.

For the molecule `COCCCOc1ccc(Cl)c(-c2nnc3c(C)nc4ccc(C)nc4n23)c1` [Example 31], the IC50 was determined as 1900 nM in data set [1], 8 nM in data set [2], 2900 nM in data set [3] and 7 nM in data set [4].

For `Cc1ccc2nc(C)c3nnc(-c4cccc(OCCCO)c4)n3c2n1` [Example 36], the IC50 in data set [1] came out at 850 nM; in data set [4] it was 219 nM.

Take `Cc1nc2cccnc2n2c(-c3cc(OCC4(C)COC4)ccc3Cl)nnc12` [Example 37]: the IC50 in data set [1] was found to be 3080 nM; in data set [4], 171 nM.

As to `Cc1nc2cccnc2n2c(-c3cc(OC(C)C4CCOCC4)ccc3Cl)nnc12` (stereo not drawn) [Example 38], the results for the concentration for half-maximal inhibition (IC50) in data set [1] and in data set [4] were 1960 nM and 417 nM, respectively.

In the case of `Cc1nc2cccnc2n2c(-c3cc(OC4CCC(O)CC4)ccc3Cl)nnc12` (stereo not drawn) [Example 39], the figures for the IC50 in data set [1] and in data set [4] were 2100 nM and 914 nM, respectively.

Usually IC50 stands for the midpoint of a concentration-inhibition curve.
